Source: patent EP1379283B1, “IDENTIFICATION OF TARGET-SPECIFIC FOLDING SITES IN PEPTIDES AND PROTEINS” (Palatin Technologies, Inc., priority 2000, dated 2002)
Square brackets hold non-standard residues; d marks the D form. Ends that are not written are not given here. dChg = N[C@@H](C(=O)O)C1CCCCC1; Chg = N[C@H](C(=O)O)C1CCCCC1; Orn = NCCC[C@H](N)C(=O)O; Dap = NC[C@H](N)C(=O)O; Sar = CNCC(=O)O

What was measured:
[1] = target: T1, uPA receptor (Homo sapiens, UniProt Q03405); test: uPA receptor-binding assay using U937 cells and ATF as competitive ligand; details: for % Inhibition at 1 µM: 1 µM metallopeptide, U937 cells, ATF as competitive receptor binding ligand
T1 construct: endogenous in cells; host or cells: U937 cells
T1 sequence (Q03405 23-335): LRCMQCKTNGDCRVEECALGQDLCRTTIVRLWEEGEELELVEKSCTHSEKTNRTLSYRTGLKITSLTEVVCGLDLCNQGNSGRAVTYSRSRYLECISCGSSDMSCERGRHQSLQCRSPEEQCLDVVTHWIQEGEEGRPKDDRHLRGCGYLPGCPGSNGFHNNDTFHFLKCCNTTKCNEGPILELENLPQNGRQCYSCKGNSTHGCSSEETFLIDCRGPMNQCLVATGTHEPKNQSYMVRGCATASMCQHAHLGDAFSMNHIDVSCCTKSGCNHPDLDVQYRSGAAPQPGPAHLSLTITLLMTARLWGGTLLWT

[2] = target: T2, vasopressin-1 receptor (Rattus norvegicus, UniProt P30560); test: vasopressin-1 receptor binding, 3H-vasopressin-1 antagonist, cell membranes from rat liver; details: Table 29, vasopressin ligand library
T2 construct: cell membranes prepared from rat liver; from tissue; host or cells: rat liver membranes
T2 sequence (P30560 whole entry): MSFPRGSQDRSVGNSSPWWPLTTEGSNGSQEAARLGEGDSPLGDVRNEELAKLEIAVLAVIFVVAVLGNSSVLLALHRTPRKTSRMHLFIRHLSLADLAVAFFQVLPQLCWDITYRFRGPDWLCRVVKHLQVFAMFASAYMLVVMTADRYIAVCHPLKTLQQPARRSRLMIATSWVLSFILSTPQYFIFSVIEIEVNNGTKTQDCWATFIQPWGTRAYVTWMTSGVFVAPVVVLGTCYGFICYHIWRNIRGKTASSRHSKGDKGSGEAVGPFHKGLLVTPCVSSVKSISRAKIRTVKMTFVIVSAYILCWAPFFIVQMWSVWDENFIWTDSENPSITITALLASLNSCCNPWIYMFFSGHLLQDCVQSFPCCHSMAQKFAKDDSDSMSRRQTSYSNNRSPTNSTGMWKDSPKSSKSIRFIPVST
Protocol: The screening of compounds for vasopressin-1 receptor was performed using cell membranes prepared from rat liver. The assay was essentially performed as described above for the oxytocin receptor assay. In this assay 2-4 nM ^3H-vasopressin-1 antagonist (obtained from Perkin Elemer- NEN Life Sciences) was used as the radiotracer and Arg^8-vasopressin (1 µM final concentration in the assay) was used to determine non-specific binding. The assay was performed in triplicates. Activity profile for the test compounds were generated by their ability to inhibit specific binding of the radiotracer to its receptor.

[3] = target: T3, oxytocin receptor (Rattus norvegicus, UniProt P70536); test: oxytocin receptor binding, 3H-oxytocin, cell membranes from rat uterus; details: Table 29, vasopressin ligand library; 1 µM; rat uterus membranes; 3H-oxytocin
T3 construct: cell membranes prepared from rat uterus; from tissue; host or cells: rat uterus membranes
T3 sequence (P70536 1-388): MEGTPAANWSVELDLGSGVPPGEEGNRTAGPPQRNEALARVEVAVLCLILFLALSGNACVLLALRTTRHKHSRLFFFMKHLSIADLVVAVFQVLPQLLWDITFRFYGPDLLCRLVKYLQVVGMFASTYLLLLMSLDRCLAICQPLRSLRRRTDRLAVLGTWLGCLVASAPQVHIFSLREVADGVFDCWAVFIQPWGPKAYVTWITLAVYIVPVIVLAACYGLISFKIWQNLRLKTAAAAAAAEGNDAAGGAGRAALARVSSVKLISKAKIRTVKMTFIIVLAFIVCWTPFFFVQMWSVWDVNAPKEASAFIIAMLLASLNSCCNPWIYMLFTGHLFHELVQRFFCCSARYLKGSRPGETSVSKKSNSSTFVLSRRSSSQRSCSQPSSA
Protocol: The screening of metallopeptides for binding to oxytocin receptor was done using cell membranes prepared from rat uterus. […] The membrane preparations (10 - 50 µg/well) were incubated with 412-800 pM ^3H-oxytocin in HEPES Buffer containing 0.2% bovine serum albumin along with a test compound (1 µM final assay concentration) for 2 hours at 4° C. Non-specific binding was determined by addition of 10^-6 M oxytocin instead of the test compound. After incubation, the membranes were filtered and washed three times with ice-cold PBS. The membranes were air-dried and punched directly into scintillation vials. After addition of the scintillation cocktail, the vials were capped and gently shaken for 12 hours to dissolve the radioactivity contained in the filters. The vials were then read for tritium counts in a scintillation counter. Specific binding was determined as the radioactivity in wells containing ^3H-oxytocin alone minus the radioactivity in wells containing 10^-6 M oxytocin. The assay was performed in triplicates. The activity profile for the test compounds were generated by their ability to inhibit specific binding of the radiotracer to its receptor.

[4] = target: T4, angiotensin-II receptor (Homo sapiens, UniProt P30556); test: angiotensin-II receptor binding, radioiodinated angiotensin II ligand, membranes of human neuroblastoma cells (KAN-TS); details: for % Inhibition at 1 µM: KAN-TS cell membranes, 125I-Tyr4, Sar1, Ile8-Angiotensin II
T4 construct: cell membranes obtained from human neuroblastoma cells (KAN-TS); endogenous in cells; host or cells: KAN-TS human neuroblastoma cells (membranes)
T4 sequence (P30556 1-359): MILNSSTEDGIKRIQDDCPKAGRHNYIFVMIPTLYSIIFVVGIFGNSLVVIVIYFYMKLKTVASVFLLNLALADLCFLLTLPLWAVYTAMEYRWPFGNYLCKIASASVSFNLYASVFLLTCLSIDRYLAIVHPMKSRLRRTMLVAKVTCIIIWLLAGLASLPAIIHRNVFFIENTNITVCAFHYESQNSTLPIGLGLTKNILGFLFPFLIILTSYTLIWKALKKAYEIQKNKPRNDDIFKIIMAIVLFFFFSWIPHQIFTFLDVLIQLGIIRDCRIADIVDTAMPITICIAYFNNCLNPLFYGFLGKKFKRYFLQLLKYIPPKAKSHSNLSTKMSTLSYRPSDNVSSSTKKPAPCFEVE
Protocol: The screening of compounds for binding to the angiotensin-II receptor was performed using cell membranes obtained from human neuroblastoma cells (KAN-TS). The assay was performed in triplicates, generally as described in Example 4 for oxytocin, except for measurement of receptor bound radioactivity. For angiotensin, a radioiodinated tracer ligand was used (instead of a tritiated ligand), which radioiodinated tracer facilitated direct measurement of bound radioactivity using a gamma counter. A final 1-3 nM concentration of ^125I-Tyr^4, Sar^1, Ile^8-Angiotensin II ligand (obtained from Perkin Elemer - NEN Life Sciences) was used as radiotracer and angiotensin-II (1 µM final assay concentration) was used to measure non-specific binding. After filtration of the incubation medium, followed by washings, drying the filters and punching the filters into test tubes, the filters were counted for radioactivity in a gamma counter. An activity profile for the test compounds was generated by ability to inhibit specific binding of the radiotracer to its receptor.

Substance: Ac-Val-Ser-Asn-Cys-Lys-Tyr-Phe-Ser-Asn-Ile-His-Trp-NH2 (Ac-VSNCKYFSNIHW-NH2; not fully specified (bridges); printed as Ac-Val-Ser-Asn-Cys-Lys-Tyr-Phe-Ser-Asn-Ile-His-Trp-NH2; also: oxorhenium(V) N3S1 metal chelate (X-X-Cys)) [SEQ ID NO:5]
- % Inhibition at 1 µM [1]: 0.0%

Substance: Ac-Val-Ser-Asn-Lys-Cys-Tyr-Phe-Ser-Asn-Ile-His-Trp-NH2 (Ac-VSNKCYFSNIHW-NH2; not fully specified (bridges); printed as Ac-Val-Ser-Asn-Lys-Cys-Tyr-Phe-Ser-Asn-Ile-His-Trp-NH2; also: oxorhenium(V) N3S1 metal chelate (X-X-Cys)) [SEQ ID NO:6]
- % Inhibition at 1 µM [1]: 13.0%

Substance: Ac-Val-Ser-Asn-Lys-Tyr-Cys-Phe-Ser-Asn-Ile-His-Trp-NH2 (Ac-VSNKYCFSNIHW-NH2; not fully specified (bridges); printed as Ac-Val-Ser-Asn-Lys-Tyr-Cys-Phe-Ser-Asn-Ile-His-Trp-NH2; also: oxorhenium(V) N3S1 metal chelate (X-X-Cys)) [SEQ ID NO:7]
- % Inhibition at 1 µM [1]: 18.0%

Substance: Ac-Val-Ser-Asn-Lys-Tyr-Phe-Cys-Ser-Asn-Ile-His-Trp-NH2 (Ac-VSNKYFCSNIHW-NH2; not fully specified (bridges); printed as Ac-Val-Ser-Asn-Lys-Tyr-Phe-Cys-Ser-Asn-Ile-His-Trp-NH2; also: oxorhenium(V) N3S1 metal chelate (X-X-Cys)) [SEQ ID NO:8]
- % Inhibition at 1 µM [1]: 0.0%

Substance: Ac-Val-Ser-Asn-Lys-Tyr-Phe-Ser-Asn-Cys-Ile-His-Trp-NH2 (Ac-VSNKYFSNCIHW-NH2; not fully specified (bridges); printed as Ac-Val-Ser-Asn-Lys-Tyr-Phe-Ser-Asn-Cys-Ile-His-Trp-NH2; also: oxorhenium(V) N3S1 metal chelate (X-X-Cys)) [SEQ ID NO:10]
- % Inhibition at 1 µM [1]: 32.0%

Substance: Ac-Val-Ser-Asn-Lys-Tyr-Phe-Ser-Asn-Ile-Cys-His-Trp-NH2 (Ac-VSNKYFSNICHW-NH2; not fully specified (bridges); printed as Ac-Val-Ser-Asn-Lys-Tyr-Phe-Ser-Asn-Ile-Cys-His-Trp-NH2; also: oxorhenium(V) N3S1 metal chelate (X-X-Cys)) [SEQ ID NO:11]
- % Inhibition at 1 µM [1]: 0.0%

Substance: Ac-Val-Ser-Asn-Lys-Tyr-Phe-Ser-Asn-Ile-His-Cys-Trp-NH2 (Ac-VSNKYFSNIHCW-NH2; not fully specified (bridges); printed as Ac-Val-Ser-Asn-Lys-Tyr-Phe-Ser-Asn-Ile-His-Cys-Trp-NH2; also: oxorhenium(V) N3S1 metal chelate (X-X-Cys)) [SEQ ID NO:3]
- % Inhibition at 1 µM [1]: 106.0%
- relative potency in uPA receptor binding ([1]; compared with the other metallopeptides of Table 1): most potent

Substance: Ac-Val-Ser-Asn-Lys-Tyr-Phe-Ser-Asn-lie-His-Trp-Cys-NH2 [SEQ ID NO:12]
- % Inhibition at 1 µM [1]: 0.0%

Substance: Ac-Val-Ser-Asn-Lys-Tyr-Phe-Ser-Cys-Asn-Ile-His-Trp-NH2 (Ac-VSNKYFSCNIHW-NH2; not fully specified (bridges); printed as Ac-Val-Ser-Asn-Lys-Tyr-Phe-Ser-Cys-Asn-Ile-His-Trp-NH2; also: oxorhenium(V) N3S1 metal chelate (X-X-Cys)) [SEQ ID NO:9]
- % Inhibition at 1 µM [1]: 35.0%

Substance: Ac-Val-Ser-Cys-Asn-Lys-Tyr-Phe-Ser-Asn-Ile-His-Trp-NH2 (Ac-VSCNKYFSNIHW-NH2; not fully specified (bridges); printed as Ac-Val-Ser-Cys-Asn-Lys-Tyr-Phe-Ser-Asn-Ile-His-Trp-NH2; also: oxorhenium(V) N3S1 metal chelate (X-X-Cys)) [SEQ ID NO:4]
- % Inhibition at 1 µM [1]: 0.0%

Substance: Caca-D-Trp-Ile-Cys-Thr-Dap-Ala-Pro-Orn-NH2
- % Inhibition at 1 µM Vasopressin-1 Receptor [2]: 52%
- % Inhibition at 1 µM Oxytocin Receptor [3]: 0%

Substance: Caca-D-Trp-Ile-Thr-Cys-Dap-Ala-Pro-Orn-NH2
- % Inhibition at 1 µM Vasopressin-1 Receptor [2]: 0%
- % Inhibition at 1 µM Oxytocin Receptor [3]: 0%

Substance: Caca-D-Trp-Ile-Thr-Dap-Ala-Ala-Cys-Orn-NH2
- % Inhibition at 1 µM Vasopressin-1 Receptor [2]: 0%
- % Inhibition at 1 µM Oxytocin Receptor [3]: 0%

Substance: Caca-D-Trp-Ile-Thr-Dap-Ala-Ala-Orn-Cys-NH2
- % Inhibition at 1 µM Vasopressin-1 Receptor [2]: 23%
- % Inhibition at 1 µM Oxytocin Receptor [3]: 0%

Substance: Caca-D-Trp-Ile-Thr-Dap-Ala-Cys-Ala-Orn-NH2
- % Inhibition at 1 µM Vasopressin-1 Receptor [2]: 0%
- % Inhibition at 1 µM Oxytocin Receptor [3]: 0%

Substance: Caca-D-Trp-Ile-Thr-Dap-Ala-Cys-Pro-Orn-NH2
- % Inhibition at 1 µM Vasopressin-1 Receptor [2]: 0%
- % Inhibition at 1 µM Oxytocin Receptor [3]: 0%

Substance: Caca-D-Trp-Ile-Thr-Dap-Cys-Ala-Pro-Orn-NH2
- % Inhibition at 1 µM Vasopressin-1 Receptor [2]: 22%
- % Inhibition at 1 µM Oxytocin Receptor [3]: 9%

Substance: Pmp-D-Trp-Cys-Ile-Thr-Dap-Ala-Pro-Orn-NH2
- % Inhibition at 1 µM Vasopressin-1 Receptor [2]: 23%
- % Inhibition at 1 µM Oxytocin Receptor [3]: 0%

Substance: Sar-Arg-Cys-Val-Tyr-Ile-His-Pro-Thr ([Sar]RCVYIHPT; not fully specified (bridges); printed as Sar-Arg-Cys-Val-Tyr-Ile-His-Pro-Thr; also: oxorhenium(V) metal complex) [SEQ ID NO:165]
- % Inhibition at 1 µM [4]: 1%

Substance: Sar-Arg-Val-Cys-Tyr-Ile-His-Pro-Thr ([Sar]RVCYIHPT; not fully specified (bridges); printed as Sar-Arg-Val-Cys-Tyr-Ile-His-Pro-Thr; also: oxorhenium(V) metal complex) [SEQ ID NO:164]
- % Inhibition at 1 µM [4]: 1%

Substance: Sar-Arg-Val-Tyr-Cys-Ile-His-Pro-Thr ([Sar]RVYCIHPT; not fully specified (bridges); printed as Sar-Arg-Val-Tyr-Cys-Ile-His-Pro-Thr; also: oxorhenium(V) metal complex) [SEQ ID NO:163]
- % Inhibition at 1 µM [4]: 12%

Substance: Sar-Arg-Val-Tyr-Ile-Cys-His-Pro-Thr ([Sar]RVYICHPT; not fully specified (bridges); printed as Sar-Arg-Val-Tyr-Ile-Cys-His-Pro-Thr; also: oxorhenium(V) metal complex) [SEQ ID NO:162]
- % Inhibition at 1 µM [4]: 20%

Substance: Sar-Arg-Val-Tyr-Ile-His-Cys-Gly-Thr ([Sar]RVYIHCGT; not fully specified (bridges); printed as Sar-Arg-Val-Tyr-Ile-His-Cys-Gly-Thr; also: oxorhenium(V) metal complex) [SEQ ID NO:166]
- % Inhibition at 1 µM [4]: 11%
- percent inhibition compared with SEQ ID NO:161 ([4]; Gly substituted for Pro): significantly less

Substance: [Chg][dW]CIT[Dap]AP[Orn]-NH2
- % Inhibition at 1 µM Vasopressin-1 Receptor [2]: 0%
- % Inhibition at 1 µM Oxytocin Receptor [3]: 0%

Substance: [dChg][dW]CIT[Dap]AP[Orn]-NH2
- % Inhibition at 1 µM Vasopressin-1 Receptor [2]: 8%
- % Inhibition at 1 µM Oxytocin Receptor [3]: 0%
